Two compounds from publication PMC10208570, “Peptidomimetic antibiotics disrupt the lipopolysaccharide transport bridge of drug-resistant Enterobacteriaceae” (Science Advances, 2023) can be followed below.

In brackets after ≈: the same amount, converted by molar mass. Where a SMILES comes first, the peptide text is derived from it. Bridges are numbered along the chain shown (N, C = ends). [ ]: non-standard residue; d: D form. The star is where a group is joined. Val(Nα-amidino) = CC(C)[C@H](NC(=N)N)C(=O)*; Hyp = O=C(O)[C@@H]1C[C@@H](O)CN1; Pen = CC(C)(S)[C@H](N)C(=O)O; dDab = NCC[C@@H](N)C(=O)O; Dab = NCC[C@H](N)C(=O)O

The test system of series [1] is K. pneumoniae NCTC 13443 (NDM-1) LptA Q62L mutant. Description: microbe, parasite or virus in culture. The following applies: for MIC K. pneumoniae NCTC 13443 (NDM-1) Q62L mutant: CLSI method, clone harboring LptA Q62L. The procedure, abridged:
(§1)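 First, MICs were measured per CLSI. Next, organisms underwent serial passage. Finally, resistant mutants were isolated, their MICs determined, and whole genomes sequenced with bioinformatic analysis.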

In series [2] the test system is K. pneumoniae NCTC 13443 (NDM-1) (parent / WT). Briefly: microbe, parasite or virus in culture. The settings on record: for MIC K. pneumoniae NCTC 13443 (NDM-1) Parent: CLSI method, parent strain. An outline of the steps: as §1
The subject of series [3] is E. coli ATCC 25922 LptA Q62L mutant. Briefly: microbe, parasite or virus in culture. The following applies: for MIC E. coli ATCC 25922 Q62L mutant: CLSI method, clone harboring LptA Q62L. The procedure, abridged:
as §1

Series [4] deals with E. coli ATCC 25922 (parent / WT). Briefly: microbe, parasite or virus in culture. The settings on record: for MIC E. coli ATCC 25922 Parent: CLSI method, parent strain. An outline of the steps: as §1
In series [5] the test system is K. pneumoniae ATCC 43816 (parent / WT). Briefly: microbe, parasite or virus in culture. The following applies: ATCC 43816. An outline of the steps: as §1
Series [6] has as its system human red blood cells. Briefly: Haemolysis. The class given is cell-based. The settings on record: PBS-washed human red blood cells; 1 h at 200 mg/liter, 37°C; OD 540 nm; versus 100% lysis control 2.5% Triton X-100; biological replicates. The procedure: To test their hemolytic potential, compounds were incubated in the presence of phosphate-buffered saline (PBS)–washed human red blood cells. After 1-hour incubation at 200 mg/liter and 37°C, the samples were centrifuged (3220g), the supernatants were diluted in Dulbecco’s PBS, and optical density at 540 nm was determined. The hemolysis induced by the compound was calculated versus a 100% lysis control prepared with 2.5% Triton X-100 (table S4A).

Series [7] concerns the target T1, LptAm (Escherichia coli, UniProt P0ADV1).
T1 construct: His6-GB1 (N, cleaved yes); made in house; host or cells: E. coli BL21 (DE3)
Briefly: biochemical. The class given is binding, E. coli.

Series [8] in a line: Plasma protein binding. It is filed as in vitro ADME, human. The settings on record: mass balance method, ultrafiltration 30-kDa cutoff; pooled human plasma adjusted to pH 7.5; 10 mg/liter; 30 min at 37°C; biological replicates; read-out: Plasma protein binding (% bound) Human (converted). The procedure: After ultrafiltration, protein binding was determined by subtracting the percentage of compound in ultrafiltrate from the total amount of compound in spiked plasma (table S4A).

Series [9] relates to Klebsiella pneumoniae ATCC 43816 LapB mutant. Description: microbe, parasite or virus in culture. The following applies: Table S9 panel; other mutation. An outline of the steps: as §1
In series [10] the test system is Klebsiella pneumoniae NCTC 13443 LptA I36S mutant. Briefly: microbe, parasite or virus in culture. The following applies: Table S9 panel. The procedure, abridged: as §1
In series [11] the test system is K. pneumoniae ATCC 43816 LptA Q62L mutant. Briefly: microbe, parasite or virus in culture. The following applies: Table S9 panel. The procedure, abridged:
as §1

For series [12], the system named is Klebsiella pneumoniae ATCC 43816 LptA L116Q mutant. Briefly: microbe, parasite or virus in culture. The settings on record: Table S9 panel. An outline of the steps:
as §1

The subject of series [13] is Klebsiella pneumoniae ATCC 43816 PglJ, PhnJ, ThiH mutant. Description: microbe, parasite or virus in culture. The settings on record: Table S9 panel; other mutation. The procedure, abridged:
as §1

The test system of series [14] is Escherichia coli ATCC 25922 LptA E84D mutant. Briefly: microbe, parasite or virus in culture. The settings on record: Table S9 panel. The procedure, abridged:
as §1

Series [15] deals with Klebsiella pneumoniae ATCC 43816 LptA I36S mutant. Description: microbe, parasite or virus in culture. The following applies: Table S9 panel. An outline of the steps:
as §1

The subject of series [16] is Klebsiella pneumoniae NCTC 13443 LpxC, LpxD mutant. Description: microbe, parasite or virus in culture. The following applies: Table S9 panel; other mutation. An outline of the steps:
as §1

In series [17] the test system is Escherichia coli ATCC 25922 KdsD mutant. Briefly: microbe, parasite or virus in culture. The following applies: Table S9 panel; other mutation. An outline of the steps: as §1
The subject of series [18] is Klebsiella pneumoniae ATCC 43816 LptA I36N mutant. Briefly: microbe, parasite or virus in culture. The following applies: Table S9 panel. The procedure, abridged:
as §1

The subject of series [19] is Klebsiella pneumoniae NCTC 13443 YejM mutant. Briefly: microbe, parasite or virus in culture. The following applies: Table S9 panel; other mutation. An outline of the steps:
as §1

Series [20] addresses T2, LptAmD33A (Escherichia coli, UniProt P0ADV1, D33A).
T2 construct: His6-GB1 (N, cleaved yes); made in house; host or cells: E. coli BL21 (DE3)
Briefly: FP indirect (competition) binding assay. Also noted: species or system E. coli. The procedure:
(§2) Protein stocks were purified and concentrated in buffer 1 [50 mM Na-Pi (pH 7) and 150 mM NaCl] and, if necessary, diluted to desired concentrations using buffer 2 [50 mM Na-Pi (pH 7), 150 mM NaCl, and 0.05% Tween 20]. Peptide stocks and fluorescently labeled peptide stocks were made in buffer 2. Every serial dilution consisted of 24 wells, the first well with the highest concentrate and the last well (well 24) with the lowest. First, 50 μl of buffer 2 was added to the wells 2 to 24 of each serial dilution. Then, 100 μl of concentrated unlabeled peptide/protein in their respective buffers was added to the first well. Fifty microliters were taken from the first well and added to the second well for a 1:1 serial dilution and continued for the 24 wells. […] Plates were covered with adhesive seals and left to incubate overnight at 4°C before FP measurements the next day. Anisotropy was measured using the Tecan Safire2 plate reader using a 10-nm bandwidth and setting the excitation and emission wavelengths to 635 and 670 nm, respectively. The G-factor (G) was also determined empirically as 1.094 for the instrument and included in all the anisotropy calculations.
(§3) For the indirect binding assays, r was calculated in the same manner as the direct binding assays. […] The control was subtracted from r to yield r′. Data were fit to a sigmoidal interpolation model on GraphPad Prism 9, and an IC50 was generated for each unlabeled peptide or protein measured.

Series [21] concerns the target T3, LptAmQ62L, D33A (Escherichia coli, UniProt P0ADV1, D33A/Q62L).
T3 construct: His6-GB1 (N, cleaved yes); made in house; host or cells: E. coli BL21 (DE3)
Briefly: FP indirect (competition) binding assay. Further details: species or system E. coli. As for the experimental part: as §2, §3

T1 sequence (P0ADV1 28-159): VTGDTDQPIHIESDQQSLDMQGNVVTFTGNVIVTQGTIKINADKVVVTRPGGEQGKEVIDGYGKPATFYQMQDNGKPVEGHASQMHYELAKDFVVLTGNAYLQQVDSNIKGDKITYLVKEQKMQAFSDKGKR
T3 sequence (P0ADV1 28-159 D33A/Q62L): as the sequence (P0ADV1 28-159) above, with D6A, Q35L counted along it
T2 sequence (P0ADV1 28-159 D33A): as the sequence (P0ADV1 28-159) above, with D6A counted along it

For `CC[C@H](C)[C@H](NC(=O)[C@@H]1C[C@@H](O)CN1C(=O)[C@@H](N)C(C)C)C(=O)N[C@H](C(=O)N[C@@H](Cc1ccc(O)cc1)C(=O)N[C@@H]1C(=O)N[C@@H](CC(N)=O)C(=O)N[C@@H](CCCNC(=N)N)C(=O)N[C@@H](CCN)C(=O)N[C@@H]([C@@H](C)O)C(=O)N[C@H](CCN)C(=O)N[C@@H](CCCCN)C(=O)N[C@H](C(=O)N[C@@H](CCN)C(=O)N[C@@H](CCCNC(=N)N)C(=O)N[C@@H](Cc2ccc(O)cc2)C(=O)O)CSSC1(C)C)[C@@H](C)O` [Compound 6] (H-V[Hyp]ITY[Pen]NR[Dab]T[dDab]KC[Dab]RY-OH; disulfide 6-13), the “MIC K. pneumoniae NCTC 13443 (NDM-1) Q62L mutant” value in series [1] is listed as above 8 micrograms per milliliter. In addition, the “MIC K. pneumoniae NCTC 13443 (NDM-1) Parent” value in series [2] stood at 2 micrograms per milliliter. The “MIC E. coli ATCC 25922 Q62L mutant” value in series [3] is recorded as 2 micrograms per milliliter. Besides, the “MIC E. coli ATCC 25922 Parent” value in [4] is reported as 0.125 micrograms per milliliter. Also, in series [5], the “MIC K. pneumoniae ATCC 43816 Parent” value is given as 0.25 micrograms per milliliter. The “Haemolysis % at 0.2 g/L” value in [6] is on record as 0%. In series [7], this compound returned a half-inhibitory concentration (IC50) of 0.0169 ± 0.001 µM and an inhibition constant (Ki) of 0.0028 ± 0.0002 µM. Moreover, the fraction unbound at 30 min, 10 mg/liter in series [8] was 0.38.
Consider `CC[C@H](C)[C@H](NC(=O)[C@@H]1C[C@@H](O)CN1C(=O)[C@@H](NC(=N)N)C(C)C)C(=O)N[C@H](C(=O)N[C@@H](Cc1ccc(O)cc1)C(=O)N[C@@H]1C(=O)N[C@@H](CC(N)=O)C(=O)N[C@@H](CCCNC(=N)N)C(=O)N[C@@H](CCN)C(=O)N[C@@H]([C@@H](C)O)C(=O)N[C@H](CCN)C(=O)N[C@@H](CCCCN)C(=O)N[C@H](C(=O)N[C@@H](CCN)C(=O)N[C@@H](CCCNC(=N)N)C(=O)N[C@@H](Cc2ccc(O)cc2)C(=O)O)CSSC1(C)C)[C@@H](C)O` [Compound 7] ({Val(Nα-amidino)}-[Hyp]ITY[Pen]NR[Dab]T[dDab]KC[Dab]RY-OH; disulfide 5-12), for which the “MIC K. pneumoniae NCTC 13443 (NDM-1) Q62L mutant” value in [1] is reported as above 8 micrograms per milliliter. For the same compound, the “MIC Klebsiella pneumoniae NCTC 13443 LptA Q62L (5x)” value in series [1] (Table S9 panel) was above 16 µg/mL. The “MIC Klebsiella pneumoniae ATCC 43816 LapB (1x)” value in series [9] turned out to be 0.5 µg/mL (≈ 0.25 µM). Moreover, in series [10], the “MIC Klebsiella pneumoniae NCTC 13443 LptA I36S (2x)” value turned out to be 8 µg/mL (≈ 4 µM). In series [11], the “MIC Klebsiella pneumoniae ATCC 43816 LptA Q62L (4x)” value was 8 µg/mL (≈ 4 µM). Besides, the “MIC Klebsiella pneumoniae ATCC 43816 LptA L116Q (1x)” value in series [12] came out at 2 µg/mL (≈ 0.999 µM). Further, in series [13], the “MIC Klebsiella pneumoniae ATCC 43816 PglJ, PhnJ, ThiH (1x)” value is given as 0.5 µg/mL (≈ 0.25 µM). For the same compound, the “MIC K. pneumoniae NCTC 13443 (NDM-1) Parent” value in [2] was 0.5 micrograms per milliliter. Further, in series [2] (Table S9 panel, WT), the “MIC Klebsiella pneumoniae NCTC 13443 WT” value was 1 µg/mL (≈ 0.5 µM). Further, the “MIC E. coli ATCC 25922 Q62L mutant” value in [3] amounted to 4 micrograms per milliliter. For the same compound, the “MIC Escherichia coli ATCC 25922 LptA Q62L (7x)” value in series [3] (Table S9 panel) was 2 µg/mL (≈ 0.999 µM). Besides, in series [14], the “MIC Escherichia coli ATCC 25922 LptA E84D (1x)” value was 1 µg/mL (≈ 0.5 µM). For the same compound, the “MIC Klebsiella pneumoniae ATCC 43816 LptA I36S (1x)” value in series [15] was found to be 2 µg/mL (≈ 0.999 µM). Moreover, in series [4], the “MIC E. coli ATCC 25922 Parent” value came to 0.063 micrograms per milliliter. Also, the “MIC Escherichia coli ATCC 25922 WT” value in series [4] (Table S9 panel, WT) is 0.125 µg/mL (≈ 0.0625 µM). Also, in series [16], the “MIC Klebsiella pneumoniae NCTC 13443 LpxC, LpxD (1x)” value is 1 µg/mL (≈ 0.5 µM). The “MIC Escherichia coli ATCC 25922 KdsD (2x)” value in [17] is on record as 0.5 µg/mL (≈ 0.25 µM). Further, in [18], the “MIC Klebsiella pneumoniae ATCC 43816 LptA I36N (1x)” value is listed as 2 µg/mL (≈ 0.999 µM). For the same compound, in series [19], the “MIC Klebsiella pneumoniae NCTC 13443 YejM (1x)” value came out at 2 µg/mL (≈ 0.999 µM). For the same compound, in series [5], the “MIC K. pneumoniae ATCC 43816 Parent” value worked out at 0.125 micrograms per milliliter and the “MIC Klebsiella pneumoniae ATCC 43816 WT” value is given as 0.25 µg/mL (≈ 0.125 µM). Also, in series [6], the “Haemolysis % at 0.2 g/L” value amounted to 0%. For the same compound, in series [7], half-maximal inhibition (IC50) was put at 0.0117 ± 0.0005 µM and the affinity corresponds to a Ki of 0.0019 ± 0.0001 µM. For the same compound, in series [20], the half-inhibitory concentration (IC50) was 0.0323 ± 0.0034 µM and affinity was put at a Ki of 0.0234 ± 0.0025 µM. In [21], this compound displayed an IC50 of 0.0232 ± 0.01 µM and a Ki of 0.017 ± 0.0073 µM. Also, in series [8], the fraction unbound at 30 min, 10 mg/liter is 0.19.

Broadly, the IC50 is the concentration at which inhibition is half-maximal. Lower therefore signals inhibition by little substance. By Ki is commonly meant the equilibrium dissociation constant of an inhibitor or competing ligand from its target.
